# Measured values published in US20230372292A1 (priority 2020, published 2023).
# Columns and labels:
# interleukin-1β release = settings: after LPS treatment; cited from earlier work
# [1] = tested on: inflammasome-mediated release of IL1beta; assay: Nigericin-induced IL-1β release in PMA-differentiated, LPS-stimulated THP-1 cells (ELISA); type: cell-based, human; settings: PMA 50 nM 24 h, LPS 1 μg/mL 6 h
# Experimental: THP-1 cells come from a child with leukemia. It is a pre-monocytic line, characterized by a suspension of (non-adherent) cells with a well rounded shape. The cells used come from ATCC. The cells are cultured at a density of 0.4.106 /mL in T75 flasks kept upright in RPMI 1640 Medium, Glutamax, Supplement HEPES (ThermoFischer Scientific, #72400027) supplemented with 10% FCS (previously decomplemented and flitre) and 1% PS antibiotics. The cultures are maintained at 37° C. under a humid atmosphere with 5% CO2.
# The differentiation of THP-1 is induced by adding phorbol 12-myritate 13-acetate (PMA, 5 mg/mL stock in DMSO, InvivoGen, # tlrl-pma) to the medium. More precisely, the latter mimics the structure of diacylglycerol (DAG) which is an activator of protein Kinase C (PKC). Thus, it allows the stimulation of the expression of transcription factors including NF-kB, which are involved in macrophage differentiation (Park E. K. et al., 2007; Daigneault M. et al., 2010). After treatment with PMA the cells acquire a macrophages-like phenotype, that is, they become adherent and no longer divide. In practice, the cells are seeded on 24-well plates at a density of 300.103 cells/well, the PMA is then added for 24 hours at a concentration of 50 nM. The next day, the cells are washed gently with PBS and fresh complete medium is added, the cells are then left for 3 days. […]
# [2] = osteoarthritis, epilepsy, myocardial infarction (in combination with a platelet inhibitor); cited from earlier work
# [3] = cited from earlier work
# Caspase-3 = biological target: T1, Caspase-3 (Homo sapiens, UniProt P42574); settings: active form of Belnacasan; cited from earlier work
# T1 sequence (P42574 29-175 limits assumed): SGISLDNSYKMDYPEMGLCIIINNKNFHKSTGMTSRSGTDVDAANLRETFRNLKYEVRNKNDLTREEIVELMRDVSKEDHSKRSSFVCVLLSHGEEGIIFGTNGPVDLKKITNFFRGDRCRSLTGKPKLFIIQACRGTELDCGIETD
# T1 sequence (P42574 176-277 limits assumed): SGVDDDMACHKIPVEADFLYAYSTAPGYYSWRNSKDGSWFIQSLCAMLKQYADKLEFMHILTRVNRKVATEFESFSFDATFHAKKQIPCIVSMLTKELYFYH
# Caspase-9 = biological target: T2, Caspase-9 (Homo sapiens, UniProt P55211); settings: active form of Belnacasan; cited from earlier work
# T2 sequence (P55211 1-315 limits assumed): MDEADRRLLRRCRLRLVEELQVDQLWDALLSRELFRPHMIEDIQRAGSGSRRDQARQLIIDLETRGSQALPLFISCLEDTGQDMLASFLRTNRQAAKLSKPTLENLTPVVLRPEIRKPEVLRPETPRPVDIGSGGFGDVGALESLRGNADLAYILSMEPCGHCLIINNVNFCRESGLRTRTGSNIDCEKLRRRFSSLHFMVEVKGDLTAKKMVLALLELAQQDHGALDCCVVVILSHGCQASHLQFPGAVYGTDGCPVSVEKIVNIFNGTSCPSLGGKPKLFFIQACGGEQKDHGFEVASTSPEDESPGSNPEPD
# T2 sequence (P55211 331-416 limits assumed): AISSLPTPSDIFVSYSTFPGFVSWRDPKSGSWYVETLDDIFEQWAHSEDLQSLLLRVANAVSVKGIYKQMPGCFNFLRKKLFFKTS
# Caspase-7 = biological target: T3, Caspase-7 (Homo sapiens, UniProt P55210); settings: active form of Belnacasan; cited from earlier work
# T3 sequence (P55210 24-198 limits assumed): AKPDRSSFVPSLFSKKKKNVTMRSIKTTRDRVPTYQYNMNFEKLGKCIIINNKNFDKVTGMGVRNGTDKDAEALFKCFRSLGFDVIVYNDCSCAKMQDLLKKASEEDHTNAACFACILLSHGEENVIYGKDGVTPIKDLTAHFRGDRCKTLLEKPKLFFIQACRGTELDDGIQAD
# T3 sequence (P55210 207-303 limits assumed): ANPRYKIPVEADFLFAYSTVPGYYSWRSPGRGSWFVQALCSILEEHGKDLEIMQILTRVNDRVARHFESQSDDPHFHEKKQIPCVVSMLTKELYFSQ
# Caspase-4 = biological target: T4, Caspase-4 (Homo sapiens, UniProt P49662); settings: active form of Belnacasan; cited from earlier work
# T4 sequence (P49662 81-270 limits assumed): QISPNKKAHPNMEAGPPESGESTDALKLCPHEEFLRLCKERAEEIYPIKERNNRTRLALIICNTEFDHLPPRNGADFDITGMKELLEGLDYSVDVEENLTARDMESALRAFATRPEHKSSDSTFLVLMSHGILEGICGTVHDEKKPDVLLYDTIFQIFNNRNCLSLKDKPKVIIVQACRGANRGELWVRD
# T4 sequence (P49662 290-377 limits assumed): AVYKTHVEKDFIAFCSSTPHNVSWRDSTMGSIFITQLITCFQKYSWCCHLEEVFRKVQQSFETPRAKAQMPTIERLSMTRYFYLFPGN
smiles,measurement,setting,value
"CCO[C@@H]1OC(=O)C[C@@H]1NC(=O)[C@@H]1CCCN1C(=O)[C@@H](NC(=O)c1ccc(N)c(Cl)c1)C(C)(C)C [Belnacasan, (S)-1-((S)-2-(4-Amino-3-chlorobenzamido)-3,3-dimethylbutanoyl)-N-((2R,3S)-2-ethoxy-5-oxotetrahydrofuran-3-yl)pyrrolidine-2-carboxamide]",efficacy in cellular models of interleukin-1β release,interleukin-1β release,effective
same,reduction of the release of the cytokine IL-1β into the medium,"[1]; 25 μM, after 120 minutes of Nigericin treatment",90%
same,release of IL-1beta induced by nigericin,"[1]; Nigericin 5 μM for 60 and 120 minutes, n=3",prevents the release
same,efficacy in animal models,[2],significant efficacy
same,tolerability in humans,[3]; oral,well tolerated
same,decrease in the frequency of epileptic episodes (secondary endpoint),"[3]; phase 2b, 60 patients with epilepsy (48 VX-765), no statistical superiority vs placebo",15.6%
same,primary endpoint of safety and tolerance,"[3]; phase 2b, 60 patients with epilepsy",reached
CC(C)(C)[C@H](NC(=O)c1ccc(N)c(Cl)c1)C(=O)N1CCC[C@H]1C(=O)N[C@H](C=O)CC(=O)O [VRT-043198],Ki,Caspase-3,16 µM
same,Ki,Caspase-9,1000 nM
same,Ki,Caspase-7,21.5 µM
same,Ki,Caspase-4,< 0.6 nM
